Patent publication US8354522B2, “Immunostimulatory oligoribonucleotides” (Coley Pharmaceutical GmbH, priority 2005, dated 2013)
Entries after “also recorded” stand apart in the source; their conditions may differ.

Assays:
[1] = system: Raw264.7 cells, J774 cells, purified mouse CD11c+ cells; experiment: Cytokine production by mouse cells in vitro (ELISA); type: cell-based; settings: ORN complexed to DOTAP, 16 or 20 hours
Description: (§1) Cells used were mouse macrophage cell line Raw264.7 cells (FIG. 12a), J774 cells (FIG. 12b), purified mouse CD11c+ cells (sv129 mice) (FIGS. 12c-12h) and mouse cells in vivo. Cytokine concentration was evaluated by ELISA.
(§2) Raw264.7 cells (FIG. 12a), J774 cells (FIG. 12b) and purified CD11c+ cells (Milteny, magnetic bead labeling) were isolated from sv129 mice splenocytes (FIGS. 12c-12e) and were stimulated with indicated concentrations of ORN complexed to DOTAP (50 μg/ml and diluted with ORN), R-848 or DOTAP alone (50 μg/ml). After 16 hours (FIGS. 12a and 12b) or 20 hours (FIGS. 12c-12e) supernatants were harvested and used for TNF-alpha (FIGS. 12a and 12b), IL-12p40 (FIG. 12c), IFN-alpha (FIG. 12d) and IP-10 (FIG. 12e) ELISA. Data represent one individual from at least three experiments (FIGS. 12a and 12b) and mean of 3 mice (FIGS. 12c-12e). To measure the ability of AU-rich ORN to stimulate mouse cells in vivo, sv129 mice (n=5/group) were injected with the indicated amounts of ORN formulated with DOTAP (60, 20 or 6 μg/ml), and bled after 3 hours. IL-12p40 (FIG. 12f), IFN-alpha (FIG. 12g) and IP-10 (FIG. 12h) production was measured within whole blood by ELISA.

[2] = system: isolated pDC; experiment: IFN-alpha production upon isolated pDC stimulation; type: cell-based, human; settings: 0.5 μM ORN complexed to 10 μg/ml DOTAP, 16 h
Description: FIG. 2 is a set of bar graphs depicting ORN induced cytokine production upon isolated pDC (FIG. 2a), monocytes (FIG. 2b) and mDC (FIG. 2c) stimulation. Cells were stimulated with 0.5 μM ORN complexed to 10 μg/ml DOTAP, 0.5 μM CpG ODN or DOTAP or media alone and IFN-alpha (FIG. 2a), TNF-alpha […] and IL-12p40 (FIG. 2c) were measured.
A similar assay testing different ORN sequences was performed using isolated pDC, monocytes and mDC stimulation. Cells were stimulated with 0.5 μM ORN complexed to 10 μg/ml DOTAP, 0.5 μM CpG ODN or DOTAP or media alone. After 16 h the supernatants were harvested and IFN-alpha, TNF-alpha and IL-12p40 levels were measured by ELISA.

[3] = system: sv129 mice; experiment: Cytokine production in sv129 mice in vivo (whole blood ELISA, 3 hours); design: species or system mouse; settings: ORN formulated with DOTAP, bled after 3 hours
Description: as §1, §2

## U*U*A*U*U*A*U*U*A*U*U*A*U*U*A*U*U*A*U*U (UUAUUAUUAUUAUUAUUAUU; chemistry not fully specified) [SEQ ID NO: 13]
[1]
  response of mouse macrophages/cells in vitro (TNF-alpha, IL-12p40, IFN-alpha, IP-10): do not Respond
[2]
  IFN-alpha production upon pDC stimulation (in words): strongly reduced IFN-alpha production; also recorded: no IFN-alpha cytokine production
[3]
  response of mouse cells in vivo (IL-12p40, IFN-alpha, IP-10 in whole blood): do not Respond
